Target: T1, recombinant MtbUGM (Mycobacterium tuberculosis, UniProt P9WIQ1)
T1 construct: made in house
Assay: biochemical
Conditions: carboxylic acid replacements (R3)

T1 sequence (P9WIQ1 whole entry): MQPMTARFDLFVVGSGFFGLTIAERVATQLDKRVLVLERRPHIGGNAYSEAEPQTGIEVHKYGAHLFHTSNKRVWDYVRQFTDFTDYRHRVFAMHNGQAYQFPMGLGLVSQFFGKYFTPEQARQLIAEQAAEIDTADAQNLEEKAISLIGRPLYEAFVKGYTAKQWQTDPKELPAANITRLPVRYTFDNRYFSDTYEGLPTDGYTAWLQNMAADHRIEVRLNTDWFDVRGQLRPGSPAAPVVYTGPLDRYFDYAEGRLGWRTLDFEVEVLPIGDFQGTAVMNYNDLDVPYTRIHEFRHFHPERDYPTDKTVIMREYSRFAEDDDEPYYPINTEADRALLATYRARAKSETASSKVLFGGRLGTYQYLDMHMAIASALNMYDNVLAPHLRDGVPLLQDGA

SMILES	MtbUGM inhibition (in words)
COC(=O)CC1Sc2nnc(Cc3ccc(Br)cc3)n2N=C1c1ccc(Cl)cc1 (stereo not shown) [Compound 14, Methyl-2-(3-(4-bromobenzyl)-6-(4-chlorophenyl)-7H-[1,2,4]triazolo[3,4-b][1,3,4]thiadiazin-7-yl)acetate]	neither the ester nor amide variants effectively inhibit MtbUGM
COC(=O)CC1Sc2nnc(-c3cccs3)n2N=C1c1ccc(Cl)cc1 (stereo not shown) [Compound 32, Methyl-2-(6-(4-chlorophenyl)-3-(thiophen-2-yl)-7H-[1,2,4]triazolo[3,4-b][1,3,4]thiadiazin-7-yl)acetate]	neither the ester nor amide variants effectively inhibit MtbUGM
C=CCNC(=O)CC1Sc2nnc(-c3cccs3)n2N=C1c1ccc(Cl)cc1 (stereo not shown) [Compound 34, N-allyl-2-(6-(4-chlorophenyl)-3-(thiophen-2-yl)-7H-[1,2,4]triazolo[3,4-b][1,3,4]thiadiazin-7-yl)acetamide]	neither the ester nor amide variants effectively inhibit MtbUGM
C=CCNC(=O)CC1Sc2nnc(Cc3ccc(Br)cc3)n2N=C1c1ccc(Cl)cc1 (stereo not shown) [Compound 35, N-allyl-2-(3-(4-bromobenzyl)-6-(4-chlorophenyl)-7H-[1,2,4]triazolo[3,4-b][1,3,4]thiadiazin-7-yl)acetamide]	neither the ester nor amide variants effectively inhibit MtbUGM

— US10080757B2 (WISCONSIN ALUMNI RESEARCH FOUNDATION, priority 2016, dated 2018)
